Reference: patent US6410553B1, “Benzosulfones and related compositions and methods” (Ortho-McNeil Pharmaceutical, Inc., priority 2000, dated 2002)

Target: T1, calcium channel (3H-nitrendipine binding, rabbit heart membranes) (Oryctolagus cuniculus, UniProt P15381)
T1 construct: from tissue; host or cells: rabbit heart (crude membrane pellet)
Test: Assay for Inhibition of Nitrendipine Binding
Conditions: 3H-nitrendipine (0.05-0.50 nM), 90 minutes at 4° C.
Experimental: Assay for Inhibition of Nitrendipine Binding
Female, New Zealand white rabbits (1-2 kg) are sacrificed by cervical dislocation, and the heart is immediately removed, cleaned and chopped into small pieces. The tissue is homogenized in 5×times volume of 0.05M Hepes buffer, pH 7.4. The homogenate is centrifuged at 4000 g for 10 minutes, and the supernatant is re-centrifuged at 42,000×g for 90 minutes. The resulting membrane pellet is resuspended (0.7 ml/g weight) in 0.05M Hepes, pH 7.4 and stored at […] until used. Each tube of the binding assay contains ^3H-nitrendipine (0.05-0.50 nM), buffer, membranes (0.10 ml), and test compound in a total volume of 1.0 ml. After 90 minutes at 4° C., the bound nitrendipine is separated from the unbound by filtration on Whatman GF/C filters. After rinsing, the filters are dried and counted in a liquid scintillation counter.
Non-specific binding of ^3H-nitrendipine (that amount bound in the presence of excess unlabelled nitrendipine) is subtracted from the total bound to obtain specifically bound radiolabeled nitrendipine. The amount of specifically bound nitrendipine in the presence of a test compound is compared to that amount bound in the absence of a compound. A percent displacement (or inhibition) can then be calculated.

T1 sequence (P15381 whole entry, other chains not shown): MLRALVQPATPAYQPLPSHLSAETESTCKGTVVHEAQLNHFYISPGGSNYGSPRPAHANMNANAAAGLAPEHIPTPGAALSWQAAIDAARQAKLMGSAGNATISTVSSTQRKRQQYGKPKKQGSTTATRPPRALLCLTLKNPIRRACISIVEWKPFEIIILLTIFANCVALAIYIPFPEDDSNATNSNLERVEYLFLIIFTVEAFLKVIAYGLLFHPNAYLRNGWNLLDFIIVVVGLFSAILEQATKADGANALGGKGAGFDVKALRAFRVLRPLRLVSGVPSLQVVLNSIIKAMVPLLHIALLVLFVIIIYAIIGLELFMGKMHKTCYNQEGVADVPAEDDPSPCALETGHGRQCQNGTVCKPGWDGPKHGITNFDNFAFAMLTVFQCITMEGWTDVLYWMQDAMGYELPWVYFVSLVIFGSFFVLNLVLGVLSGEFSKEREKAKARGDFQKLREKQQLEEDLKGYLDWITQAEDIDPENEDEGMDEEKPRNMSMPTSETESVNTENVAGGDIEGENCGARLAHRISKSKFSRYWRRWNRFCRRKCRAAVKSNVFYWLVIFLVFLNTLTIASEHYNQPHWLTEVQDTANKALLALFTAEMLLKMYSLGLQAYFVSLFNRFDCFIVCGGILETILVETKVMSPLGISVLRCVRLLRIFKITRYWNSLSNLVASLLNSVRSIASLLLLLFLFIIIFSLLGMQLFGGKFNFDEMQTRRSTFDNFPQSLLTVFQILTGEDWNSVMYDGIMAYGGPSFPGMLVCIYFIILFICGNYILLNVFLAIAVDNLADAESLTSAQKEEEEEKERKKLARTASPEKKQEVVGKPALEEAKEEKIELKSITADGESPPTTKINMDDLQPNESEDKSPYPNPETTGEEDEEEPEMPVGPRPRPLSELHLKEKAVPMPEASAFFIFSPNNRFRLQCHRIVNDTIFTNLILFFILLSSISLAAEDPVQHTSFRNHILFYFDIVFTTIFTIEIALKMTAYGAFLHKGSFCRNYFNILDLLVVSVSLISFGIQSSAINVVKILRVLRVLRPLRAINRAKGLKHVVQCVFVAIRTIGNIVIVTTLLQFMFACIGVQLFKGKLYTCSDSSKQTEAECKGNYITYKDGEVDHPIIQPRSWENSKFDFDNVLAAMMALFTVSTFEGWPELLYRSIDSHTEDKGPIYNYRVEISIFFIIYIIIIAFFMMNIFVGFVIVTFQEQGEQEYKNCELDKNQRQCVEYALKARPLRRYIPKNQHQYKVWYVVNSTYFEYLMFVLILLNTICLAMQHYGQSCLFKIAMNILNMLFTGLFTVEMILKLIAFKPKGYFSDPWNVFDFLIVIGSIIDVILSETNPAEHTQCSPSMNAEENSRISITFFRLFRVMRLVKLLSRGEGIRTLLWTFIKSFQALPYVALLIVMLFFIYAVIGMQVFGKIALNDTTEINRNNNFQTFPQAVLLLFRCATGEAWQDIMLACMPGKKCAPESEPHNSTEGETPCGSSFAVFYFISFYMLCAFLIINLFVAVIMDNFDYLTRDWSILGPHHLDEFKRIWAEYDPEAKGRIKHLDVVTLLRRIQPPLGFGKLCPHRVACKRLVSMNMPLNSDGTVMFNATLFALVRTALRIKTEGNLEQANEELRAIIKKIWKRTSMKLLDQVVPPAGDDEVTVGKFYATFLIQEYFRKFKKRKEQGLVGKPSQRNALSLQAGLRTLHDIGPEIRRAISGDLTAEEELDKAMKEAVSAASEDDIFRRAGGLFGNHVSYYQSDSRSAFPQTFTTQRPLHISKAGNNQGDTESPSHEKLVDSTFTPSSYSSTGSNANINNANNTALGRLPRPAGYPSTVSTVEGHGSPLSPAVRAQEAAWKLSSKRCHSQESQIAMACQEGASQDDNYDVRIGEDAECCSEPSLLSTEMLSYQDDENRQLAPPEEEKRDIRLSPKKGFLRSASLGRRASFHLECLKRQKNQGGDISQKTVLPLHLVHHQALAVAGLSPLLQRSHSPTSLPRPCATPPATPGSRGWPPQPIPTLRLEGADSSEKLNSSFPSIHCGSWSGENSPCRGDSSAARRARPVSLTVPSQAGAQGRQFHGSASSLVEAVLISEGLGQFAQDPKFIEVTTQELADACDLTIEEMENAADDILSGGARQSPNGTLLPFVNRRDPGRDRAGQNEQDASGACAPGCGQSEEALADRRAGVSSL
T1 sequence (P13806 27-960 partner limits assumed, other chains not shown): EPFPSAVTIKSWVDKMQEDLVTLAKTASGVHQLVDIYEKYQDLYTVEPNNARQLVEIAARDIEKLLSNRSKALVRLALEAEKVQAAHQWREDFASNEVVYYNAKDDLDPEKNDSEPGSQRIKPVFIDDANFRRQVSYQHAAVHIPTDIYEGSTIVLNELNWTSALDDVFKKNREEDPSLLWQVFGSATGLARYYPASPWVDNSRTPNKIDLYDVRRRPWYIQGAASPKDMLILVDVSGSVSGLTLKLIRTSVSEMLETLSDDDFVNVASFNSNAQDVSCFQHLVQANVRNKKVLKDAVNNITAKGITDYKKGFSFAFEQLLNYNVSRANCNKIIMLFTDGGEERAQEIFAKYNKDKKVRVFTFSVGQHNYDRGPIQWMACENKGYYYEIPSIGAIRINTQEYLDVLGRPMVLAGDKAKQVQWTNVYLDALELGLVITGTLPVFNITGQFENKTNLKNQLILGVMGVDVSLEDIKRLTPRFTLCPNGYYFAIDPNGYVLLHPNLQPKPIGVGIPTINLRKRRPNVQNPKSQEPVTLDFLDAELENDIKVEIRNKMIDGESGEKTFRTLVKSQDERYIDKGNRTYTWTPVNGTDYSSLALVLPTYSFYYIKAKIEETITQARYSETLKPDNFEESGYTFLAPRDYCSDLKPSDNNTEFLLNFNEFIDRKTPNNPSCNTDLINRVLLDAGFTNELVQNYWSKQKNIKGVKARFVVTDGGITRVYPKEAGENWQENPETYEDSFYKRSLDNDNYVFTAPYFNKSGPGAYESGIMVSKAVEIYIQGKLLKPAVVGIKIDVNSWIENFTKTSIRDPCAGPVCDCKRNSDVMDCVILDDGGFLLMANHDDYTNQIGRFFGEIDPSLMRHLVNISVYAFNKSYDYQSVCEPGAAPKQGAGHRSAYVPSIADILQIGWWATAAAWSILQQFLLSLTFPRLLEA
T1 sequence (P13806 961-1106 partner limits assumed, other chains not shown): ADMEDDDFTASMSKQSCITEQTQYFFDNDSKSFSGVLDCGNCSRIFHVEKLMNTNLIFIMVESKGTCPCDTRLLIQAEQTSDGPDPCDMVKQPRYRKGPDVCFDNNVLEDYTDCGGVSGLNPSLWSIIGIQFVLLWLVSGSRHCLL

Compared with `COC(=O)C1=C(C)NC2=C(C1c1ccccc1Cl)S(=O)(=O)CCc1ccccc12` (centres unmarked) [Compound 1, [3]Benzothiepino[1,2-b]pyridine-3-carboxylic acid, 4-(2-chlorophenyl)-1,4,6,7-tetrahydro-2-methyl-, methyl ester, 5,5-dioxide], `COC(=O)C1=C(C)NC2=C(C1c1cccc(Cl)c1Cl)S(=O)(=O)CCc1ccccc12` (centres unmarked) [Compound 3, [3]Benzothiepino[1,2-b]pyridine-3-carboxylic acid, 4-(2,3-dichlorophenyl)-1,4,6,7-tetrahydro-2-methyl-, methyl ester, 5,5-dioxide] is 16-fold lower in IC50: 612 nM for the first, 38 nM for the second. The second is the more potent here.

Compared with `CC1=C(C(=O)OCCN(C)Cc2ccccc2)C(c2cccc(Cl)c2Cl)C2=C(N1)c1ccccc1CCS2(=O)=O` (centres unmarked) [Compound 2, [3]Benzothiepino[1,2-b]pyridine-3-carboxylic acid, 4-(2,3-dichlorophenyl)-1,4,6,7-tetrahydro-2-methyl-, 2-[methyl(phenylmethyl)amino]ethyl ester, 5,5-dioxide], `CC1=C(C(=O)OCCN(C)Cc2ccccc2)C(c2ccccc2Cl)C2=C(N1)c1ccccc1CCS2(=O)=O` (centres unmarked) [Compound 11, [3]Benzothiepino[1,2-b]pyridine-3-carboxylic acid, 4-(2-chlorophenyl)-1,4,6,7-tetrahydro-2-methyl-, 2-[methyl(phenylmethyl)amino]ethyl ester, 5,5-dioxide] is 3.8-fold higher in IC50: 118 nM for the first, 453 nM for the second.

Going from `COC(=O)C1=C(C)NC2=C(C1c1c(F)c(F)c(F)c(F)c1F)S(=O)(=O)CCc1ccccc12` (centres unmarked) [Compound 4, [3]Benzothiepino[1,2-b]pyridine-3-carboxylic acid, 1,4,6,7-tetrahydro-2-methyl-4-(pentafluorophenyl)-, methyl ester, 5,5-dioxide] to `COC(=O)C1=C(C)NC2=C(C1c1c(O)cccc1Cl)S(=O)(=O)CCc1ccccc12` (centres unmarked) [Compound 9, [3]Benzothiepino[1,2-b]pyridine-3-carboxylic acid, 4-(2-chloro-6-hydroxyphenyl)-1,4,6,7-tetrahydro-2-methyl-, methyl ester, 5,5-dioxide], the IC50 rises from 261 nM to 1300 nM (5-fold).

Compared with `COC(=O)C1=C(C)NC2=C(C1c1ccccc1[N+](=O)[O-])S(=O)(=O)CCc1ccccc12` (centres unmarked) [Compound 5, [3]Benzothiepino[1,2-b]pyridine-3-carboxylic acid, 1,4,6,7-tetrahydro-2-methyl-4-(2-nitrophenyl)-, methyl ester, 5,5-dioxide], `COC(=O)C1=C(C)NC2=C(C1c1cccc([N+](=O)[O-])c1)S(=O)(=O)CCc1ccccc12` (centres unmarked) [Compound 8, [3]Benzothiepino[1,2-b]pyridine-3-carboxylic acid, 1,4,6,7-tetrahydro-2-methyl-4-(3-nitrophenyl)-, methyl ester, 5,5-dioxide] is 7.3-fold lower in IC50: 1900 nM for the first, 261 nM for the second.

First: COC(=O)C1=C(C)NC2=C(C1c1cccc(Cl)c1)S(=O)(=O)CCc1ccccc12 (centres unmarked) [Compound 6, [3]Benzothiepino[1,2-b]pyridine-3-carboxylic acid, 4-(3-chlorophenyl)-1,4,6,7-tetrahydro-2-methyl-, methyl ester, 5,5-dioxide]
Second: CC1=C(C(=O)OCCN(C)Cc2cccs2)C(c2cccc(Cl)c2Cl)C2=C(N1)c1ccccc1CCS2(=O)=O (centres unmarked) [Compound 7, [3]Benzothiepino[1,2-b]pyridine-3-carboxylic acid, 4-(2,3-dichlorophenyl)-1,4,6,7-tetrahydro-2-methyl-, 2-[methyl(2-thienylmethyl)amino]ethyl ester, 5,5-dioxide]
The IC50 of the first is 8.9-fold higher: 337 nM for the first, 38 nM for the second. The second is the more potent here.

With `CC1=C(C(=O)OCCN(C)Cc2cccs2)C(c2ccccc2Cl)C2=C(N1)c1ccccc1CCS2(=O)=O` (centres unmarked) [Compound 10, [3]Benzothiepino[1,2-b]pyridine-3-carboxylic acid, 4-(2-chlorophenyl)-1,4,6,7-tetrahydro-2-methyl-, 2-[methyl(2-thienylmethyl)amino]ethyl ester, 5,5-dioxide] the IC50 was 99 nM.
